Source: patent US7786088B2, “Targeting vector to the urokinase plasminogen activator receptor” (University of Iowa Research Foundation, priority 2000, dated 2010)

Columns and labels:
[1] = system: human airway epithelia; experiment: fluid phase endocytosis, uptake of Texas Red dextran; assay type: cell-based; conditions: 0.15 μM peptide applied to apical surface, FIG. 4
Description: B. Assay for Fluid Phase Endocytosis: Cells were chilled on ice for 15 minutes and then incubated with […] uPA or 0.15 μM u7-peptide (SEQ ID NO:1) added to the apical surface for 30 minutes at 4° C. Following 3 washes in PBS, cells were incubated with 0.5 mg/ml Texas Red-labeled fixable dextran (3,000 MW, Molecular Probes, Eugene, Oreg.) for 10 minutes at 37° C. Following 3 washes in PBS, cells were fixed with 4% paraformaldehyde, mounted onto class slides with Vectashield (Vector Laboratories, Inc., Burlingame, Calif.), and viewed by fluorescence microscopy. Control cells were incubated with Texas Red-labeled dextran alone to measure basal levels of endocytosis. Monkey tracheal explants were assayed as described for primary cell cultures. To evaluate time-dependent changes, cells were treated as described above with uPA (50 nM) followed by incubations in Texas Red dextran for 5, 10, 30 or 60 minutes at 37° C. […]
B. Effect of uPA on Fluid Phase Endocytosis in Human Airway Epithelia: Stimulation of endocytosis by uPA was determined by measuring the uptake of Texas Red-conjugated dextran, a fluid phase marker. […]

[2] = system: human airway epithelia; experiment: gene transfer by adenovirus:CaPi coprecipitate (β-galactosidase activity); assay type: cell-based
Description: B. Evaluation of Gene Transfer: The apical surface of human airway epithelia was washed once with PBS. Adenovirus was applied at a multiplicity of infection (MOI) of 50 to the apical surface for 30 minutes at 37° C. Adenovirus was applied either alone or in a CaPi coprecipitate as previously described by Fasbender et al., J. Clin. Invest. 102:184-193 (1998) and Lee et al., Hum. Gene Ther. 10:603-13 (1999) (incorporated herein by reference). Following 3 washes, cells were returned to the incubator and assayed for gene transfer 48 hours later. AAV2 was applied at an MOI<1 to the apical surface for 30 minutes at 37° C. AAV2 was applied either alone or on a CaPi coprecipitate formed as previously described by Fasbender et al. and Lee et al. for adenovirus. Following 3 washes, cells were returned to the incubator and assayed for gene transfer 14 days later. Total β-galactosidase activity was measured using a commercially available technique (Galacto-Light, Topix, Bedford, Mass.).

[3] = system: human airway epithelia; experiment: tight junction integrity measured by transepithelial resistance; conditions: following uPA or u7 treatment
Description: D. uPA Enhancement of Gene Transfer: The ability of uPA to enhance gene transfer by nonspecifically bound vector was tested.

[4] = system: CF airway epithelia; experiment: cAMP-stimulated short-circuit current after Ad2/CFTR-16:CaPi gene transfer; assay type: cell-based, human; conditions: FIG. 5C; for correction of Cl− channel defect (cAMP-stimulated current): CF airway epithelia, Ad2/CFTR-16 in CaPi coprecipitate
Description: C. Measurement of Transepithelial Electrical Properties: Epithelia were mounted in modified Ussing chambers (Jim's Instruments, Iowa City, Iowa) and bathed with Ringer's solution on their submucosal side (135 mM NaCl, 2.4 K2HPO4, 0.6 mM […], 1.2 mM CaCl2, 1.2 mM MgCl2, 5 mM Hepes, pH 7.4 and 10 mM dextrose). The mucosal surface was bathed in the identical solution, except that 135 mM NaGluconate replaced the 135 mM NaCl. In this way, a transepithelial Cl^− concentration gradient was established in order to magnify changes in Cl^− transport. The transepithelial Na^+ transport was blocked with mucosal amiloride (10 μM). Mucosal DIDS (100 μM) blocked non-CFTR Cl^− transport. The cAMP agonists, forskolin (10 μM) and IBMX (100 μM) were applied to both solutions to stimulate transepithelial Cl^− transport via CFTR.
The ability of uPA to enhance gene transfer and expression of CFTR in differentiated CF airway epithelia was also tested.

Substance | stimulation of fluid phase endocytosis [1] | increase in gene transfer compared to the coprecipitate alone ([2]; apical application before CaPi:adenovirus coprecipitates (uPA 50 nM), assayed 48 hours later, FIG. 5A) | effect on gene transfer by CaPi coprecipitate (in words) ([2]; compared with uPA) | transepithelial resistance [3] | correction of Cl− channel defect (cAMP-stimulated current) [4] | correction of Cl− channel defect (cAMP-stimulated current) ([4]; listed as u7 peptide) | uptake of a vector expressing CFTR ([4]; cystic fibrosis (CF) airway epithelia)
CLNGGTC (listed as Homo sapiens) [u7-peptide, seven residue peptide comprising amino acids 13-19 of uPA] | stimulated fluid phase endocytosis | 8-10 fold | effect similar to uPA | did not change | further enhanced the correction | to a greater extent than the full length uPA | enhanced the uptake
CTCGNCL [scrambled peptide, reference compound] | did not | – | – | – | – | – | –
